This note sets out measurements from patent publication US11530229B2, “Cyano cyclobutyl compounds for CBL-B inhibition and uses thereof” (Nurix Therapeutics, Inc., priority 2019, dated 2022).

Like-named read-outs stand apart in the source and are kept apart here.

For assay [1], the system named is primary human total T-cells. Description: T-cell activation, CD25 surface staining, Biological Example 2. The assay is classed as cell-based. The note with it: 48 hours, fold change over baseline; for fold induction at 0.3 µM: 0.3 μM inhibitor; for fold induction at 1 µM: 1 μM inhibitor; for fold induction at 3 µM: 3 μM inhibitor.
Assay [2] deals with primary human total T-cells. The experiment in a line: T-cell activation, IL-2 secretion, Biological Example 2. Format: cell-based. The note with it: 48 hours, fold change over baseline; for fold induction at 0.3 µM: 0.3 μM inhibitor; for fold induction at 1 µM: 1 μM inhibitor; for fold induction at 3 µM: 3 μM inhibitor.
The target in assay [3] is Cbl-b (Homo sapiens (Human), UniProt Q13191). Description: Cbl-b displacement assay (Cbl-b inhibition assay), Biological Example 1. Format: binding. In short, it runs like this:
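Probe displacement read as TR-FRET (520/620 nm) after 1 h with 2 nM streptavidin-terbium and 150 nM BODIPY FL-labelled inhibitor probe, about EC40. Before that, compound in 1% DMSO sat 1 h at room temperature with N-Avitag biotinylated Cbl-b 36–427, 0.5 nM (High) or 0.125 nM (Low), in pH 7.5 HEPES buffer.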

The mark [4] stands for this setting: anti-CD3 and anti-CD28 co-stimulation.
Where [5] appears, read: anti-CD3 and anti-CD28 co-stimulation, read-out: CD25 staining CD3/CD28 1 μM.
Where [6] appears, read: anti-CD3 stimulation alone, read-out: CD25 staining CD3 1 μM.
[7] abbreviates: anti-CD3 and anti-CD28 co-stimulation, read-out: IL-2 secretion CD3/CD28 1 μM.
The mark [8] stands for this setting: anti-CD3 stimulation alone, read-out: IL-2 secretion CD3 1 μM.
The mark [9] stands for this setting: 0.125 nM Cbl-b final concentration (Low), read-out: Cbl-b activity IC50 (Low).
Where [10] appears, read: read-out: IC50 values in the Cbl-b inhibition assay of Biological Example 1.

Cbl-b, sequence (Q13191 36-427): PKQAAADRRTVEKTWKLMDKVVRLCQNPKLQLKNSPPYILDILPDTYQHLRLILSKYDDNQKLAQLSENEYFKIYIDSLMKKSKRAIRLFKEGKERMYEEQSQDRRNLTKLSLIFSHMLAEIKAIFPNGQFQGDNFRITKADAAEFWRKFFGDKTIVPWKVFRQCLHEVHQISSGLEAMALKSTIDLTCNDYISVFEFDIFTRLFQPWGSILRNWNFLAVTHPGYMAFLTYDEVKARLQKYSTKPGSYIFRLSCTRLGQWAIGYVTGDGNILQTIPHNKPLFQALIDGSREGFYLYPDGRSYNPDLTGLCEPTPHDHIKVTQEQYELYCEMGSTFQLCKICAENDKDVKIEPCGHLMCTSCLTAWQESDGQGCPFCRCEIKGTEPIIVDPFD

Take `CC1CCN(Cc2cc3c(c(C(F)(F)F)c2)CN(c2cccc([C@]4(Cc5nncn5C)C[C@@H](C#N)C4)c2)C3=O)CC(C)O1` (stereo partly shown) [Compound 34, (1r,3r)-3-(3-(6-((2,7-dimethyl-1,4-oxazepan-4-yl)methyl)-1-oxo-4-(trifluoromethyl)isoindolin-2-yl)phenyl)-3-((4-methyl-4H-1,2,4-triazol-3-yl)methyl)cyclobutane-1-carbonitrile]: the fold induction at 0.3 µM in assay [1] (setting [4]) is not above 1.24; in assay [2] (setting [4]), not above 15. Moreover, the fold induction at 1 µM in assay [1] (setting [5]) was not above 1.24; in assay [1] (setting [6]) it was not above 1; in assay [2] (setting [7]) it was not above 15; in assay [2] (setting [8]) it was less than 0.4. Besides, the fold induction at 3 µM in assay [1] (anti-CD3 stimulation alone) was not above 1; in assay [2] (anti-CD3 stimulation alone), 0.4 to 0.85. In addition, the IC50 (as a rule, the concentration that inhibits the measured activity by half) in assay [3] (setting [9]) lay in the range of 2 to 5 nM.
Take `CC1COCCN(Cc2cc3c(c(C(F)(F)F)c2)CN(c2cccc([C@]4(Cc5nncn5C)C[C@@H](C#N)C4)c2)C3=O)C1` (stereo partly shown) [Compound 35, (1r,3r)-3-(3-(6-((6-methyl-1,4-oxazepan-4-yl)methyl)-1-oxo-4-(trifluoromethyl)isoindolin-2-yl)phenyl)-3-((4-methyl-4H-1,2,4-triazol-3-yl)methyl)cyclobutane-1-carbonitrile]: the fold induction at 0.3 µM in assay [1] (setting [4]) lay in the range of 1.24 to 1.39; in assay [2] (setting [4]) it was 15 to 20. Besides, the fold induction at 1 µM in assay [1] (setting [5]) lay in the range of 1.24 to 1.39; in assay [1] (setting [6]) it was 1 to 1.15; in assay [2] (setting [7]), 15 to 20; in assay [2] (setting [8]) it was 0.4 to 0.85. For the same compound, the fold induction at 3 µM was 1 to 1.15 in assay [1] (anti-CD3 stimulation alone) and 0.4 to 0.85 in assay [2] (anti-CD3 stimulation alone). The half-inhibitory concentration (IC50) in assay [3] (setting [9]) is 2 to 5 nM.
In the case of `CC1CCN(Cc2cc3c(c(C(F)(F)F)c2)CN(c2cccc([C@]4(Cc5nncn5C)C[C@@H](C#N)C4)c2)C3=O)CCO1` (stereo partly shown) [Compound 36, (1r,3r)-3-(3-(6-((7-methyl-1,4-oxazepan-4-yl)methyl)-1-oxo-4-(trifluoromethyl)isoindolin-2-yl)phenyl)-3-((4-methyl-4H-1,2,4-triazol-3-yl)methyl)cyclobutane-1-carbonitrile], the fold induction at 0.3 µM was 1.24 to 1.39 in assay [1] (setting [4]) and not above 15 in assay [2] (setting [4]). For the same compound, the fold induction at 1 µM in assay [1] (setting [5]) was more than 1.39; in assay [1] (setting [6]), 1 to 1.15; in assay [2] (setting [7]), 15 to 20; in assay [2] (setting [8]), less than 0.4. The fold induction at 3 µM in assay [1] (anti-CD3 stimulation alone) lay in the range of 1 to 1.15; in assay [2] (anti-CD3 stimulation alone), 0.4 to 0.85. Moreover, the IC50 in assay [3] (setting [9]) lay in the range of 2 to 5 nM.
Consider `Cn1cnnc1C[C@]1(c2cccc(N3Cc4c(cc(CN5CCC6CCC(C5)O6)cc4C(F)(F)F)C3=O)c2)C[C@H](C#N)C1` (stereo partly shown) [Compound 37, (1r,3r)-3-(3-(6-((9-oxa-3-azabicyclo[4.2.1]nonan-3-yl)methyl)-1-oxo-4-(trifluoromethyl)isoindolin-2-yl)phenyl)-3-((4-methyl-4H-1,2,4-triazol-3-yl)methyl)cyclobutane-1-carbonitrile], for which the fold induction at 0.3 µM in assay [1] (setting [4]) was 1.24 to 1.39; in assay [2] (setting [4]), not above 15. Besides, the fold induction at 1 µM in assay [1] (setting [5]) is 1.24 to 1.39; in assay [1] (setting [6]), 1 to 1.15; in assay [2] (setting [7]), 15 to 20; in assay [2] (setting [8]), less than 0.4. The figures for the fold induction at 3 µM in assay [1] (anti-CD3 stimulation alone) and in assay [2] (anti-CD3 stimulation alone) were not above 1 and 0.4 to 0.85, respectively. Besides, in assay [3] (setting [9]), the IC50 lay in the range of 2 to 5 nM.
`Cn1cnnc1C[C@]1(c2cccc(N3Cc4c(cc(CN5CC6COC(C6)C5)cc4C(F)(F)F)C3=O)c2)C[C@H](C#N)C1` (stereo partly shown) [Compound 38, (1r,3r)-3-(3-(6-((6-oxa-3-azabicyclo[3.2.1]octan-3-yl)methyl)-1-oxo-4-(trifluoromethyl)isoindolin-2-yl)phenyl)-3-((4-methyl-4H-1,2,4-triazol-3-yl)methyl)cyclobutane-1-carbonitrile]: the fold induction at 0.3 µM in assay [1] (setting [4]) was more than 1.39; in assay [2] (setting [4]), not above 15. The fold induction at 1 µM in assay [1] (setting [5]) was more than 1.39; in assay [1] (setting [6]) it was more than 1.15; in assay [2] (setting [7]), 15 to 20; in assay [2] (setting [8]), 0.4 to 0.85. The fold induction at 3 µM was more than 1.15 in assay [1] (anti-CD3 stimulation alone) and more than 0.85 in assay [2] (anti-CD3 stimulation alone). The concentration for half-maximal inhibition (IC50) in assay [3] (setting [9]) and in assay [3] (setting [10]) was 5 to 20 nM in each case.
In the case of `Cn1cnnc1C[C@]1(c2cccc(N3Cc4c(cc(CNC5CCC(F)(F)C5)nc4C4CC4)C3=O)c2)C[C@H](C#N)C1` (stereo partly shown) [Compound 39, (1r,3r)-3-(3-(4-cyclopropyl-6-(((3,3-difluorocyclopentyl)amino)methyl)-1-oxo-1,3-dihydro-2H-pyrrolo[3,4-c]pyridin-2-yl)phenyl)-3-((4-methyl-4H-1,2,4-triazol-3-yl)methyl)cyclobutane-1-carbonitrile], the fold induction at 0.3 µM was 1.24 to 1.39 in assay [1] (setting [4]) and not above 15 in assay [2] (setting [4]). Also, the fold induction at 1 µM is not above 1.24 in assay [1] (setting [5]), not above 1 in assay [1] (setting [6]), not above 15 in assay [2] (setting [7]) and less than 0.4 in assay [2] (setting [8]). For the same compound, the fold induction at 3 µM in assay [1] (anti-CD3 stimulation alone) was not above 1; in assay [2] (anti-CD3 stimulation alone), less than 0.4. For the same compound, the IC50 in assay [3] (setting [9]) and in assay [3] (setting [10]) was 1 to 2 nM throughout.
Regarding `C[C@H]1CCCN(Cc2cc3c(c(C4CC4)n2)CN(c2cccc([C@]4(Cc5nncn5C)C[C@@H](C#N)C4)c2)C3=O)C1` [Compound 40, (1r,3r)-3-(3-(4-cyclopropyl-6-(((S)-3-methylpiperidin-1-yl)methyl)-1-oxo-1,3-dihydro-2H-pyrrolo[3,4-c]pyridin-2-yl)phenyl)-3-((4-methyl-4H-1,2,4-triazol-3-yl)methyl)cyclobutane-1-carbonitrile], the fold induction at 0.3 µM in assay [1] (setting [4]) was 1.24 to 1.39; in assay [2] (setting [4]), not above 15. The fold induction at 1 µM in assay [1] (setting [5]) lay in the range of 1.24 to 1.39; in assay [1] (setting [6]), 1 to 1.15; in assay [2] (setting [7]), 15 to 20; in assay [2] (setting [8]), 0.4 to 0.85. For the same compound, the fold induction at 3 µM is not above 1 in assay [1] (anti-CD3 stimulation alone) and more than 0.85 in assay [2] (anti-CD3 stimulation alone). Also, the half-inhibitory concentration (IC50) in assay [3] (setting [9]) and in assay [3] (setting [10]) was 1 to 2 nM each time.
For `Cn1cnnc1C[C@]1(c2cccc(N3Cc4c(cc(CN5CCCOC(CO)C5)cc4C(F)(F)F)C3=O)c2)C[C@H](C#N)C1` (stereo partly shown) [Compound 41, (1r,3r)-3-(3-(6-((2-(hydroxymethyl)-1,4-oxazepan-4-yl)methyl)-1-oxo-4-(trifluoromethyl)isoindolin-2-yl)phenyl)-3-((4-methyl-4H-1,2,4-triazol-3-yl)methyl)cyclobutane-1-carbonitrile], the values for the fold induction at 0.3 µM in assay [1] (setting [4]) and in assay [2] (setting [4]) were 1.24 to 1.39 and not above 15, respectively. Besides, the fold induction at 1 µM was more than 1.39 in assay [1] (setting [5]), not above 1 in assay [1] (setting [6]), not above 15 in assay [2] (setting [7]) and less than 0.4 in assay [2] (setting [8]). The fold induction at 3 µM in assay [1] (anti-CD3 stimulation alone) is 1 to 1.15; in assay [2] (anti-CD3 stimulation alone) it was less than 0.4. Moreover, the half-inhibitory concentration (IC50) in assay [3] (setting [9]) was 2 to 5 nM.
As for `C[C@@H]1CN(Cc2cc3c(c(C4CC4)n2)CN(c2cccc([C@]4(Cc5nncn5C)C[C@@H](C#N)C4)c2)C3=O)CCC1(F)F` [Compound 42, (1R,3r)-3-(3-(4-cyclopropyl-6-(((R)-4,4-difluoro-3-methylpiperidin-1-yl)methyl)-1-oxo-1,3-dihydro-2H-pyrrolo[3,4-c]pyridin-2-yl)phenyl)-3-((4-methyl-4H-1,2,4-triazol-3-yl)methyl)cyclobutane-1-carbonitrile], the fold induction at 0.3 µM in assay [1] (setting [4]) was not above 1.24; in assay [2] (setting [4]), 15 to 20. Moreover, the fold induction at 1 µM in assay [1] (setting [5]) was not above 1.24; in assay [1] (setting [6]), 1 to 1.15; in assay [2] (setting [7]), more than 20; in assay [2] (setting [8]), more than 0.85. Moreover, the fold induction at 3 µM is 1 to 1.15 in assay [1] (anti-CD3 stimulation alone) and more than 0.85 in assay [2] (anti-CD3 stimulation alone). The IC50 in assay [3] (setting [9]) lay in the range of 2 to 5 nM.
With `CCC1COCCN(Cc2cc3c(c(C(F)(F)F)c2)CN(c2cccc([C@]4(Cc5nncn5C)C[C@@H](C#N)C4)c2)C3=O)C1` (stereo partly shown) [Compound 43, (1r,3r)-3-(3-(6-((6-ethyl-1,4-oxazepan-4-yl)methyl)-1-oxo-4-(trifluoromethyl)isoindolin-2-yl)phenyl)-3-((4-methyl-4H-1,2,4-triazol-3-yl)methyl)cyclobutane-1-carbonitrile], the results for the fold induction at 0.3 µM in assay [1] (setting [4]) and in assay [2] (setting [4]) were not above 1.24 and not above 15, respectively. For the same compound, the fold induction at 1 µM is not above 1.24 in assay [1] (setting [5]), 1 to 1.15 in assay [1] (setting [6]), more than 20 in assay [2] (setting [7]) and 0.4 to 0.85 in assay [2] (setting [8]). In addition, the fold induction at 3 µM in assay [1] (anti-CD3 stimulation alone) is 1 to 1.15; in assay [2] (anti-CD3 stimulation alone), 0.4 to 0.85. Besides, the half-inhibitory concentration (IC50) in assay [3] (setting [9]) fell in the range of 2 to 5 nM.
Regarding `Cn1cnnc1C[C@]1(c2cccc(N3Cc4c(cc(CN5CCOCC(CO)C5)cc4C(F)(F)F)C3=O)c2)C[C@H](C#N)C1` (stereo partly shown) [Compound 44, (1r,3r)-3-(3-(6-((6-(hydroxymethyl)-1,4-oxazepan-4-yl)methyl)-1-oxo-4-(trifluoromethyl)isoindolin-2-yl)phenyl)-3-((4-methyl-4H-1,2,4-triazol-3-yl)methyl)cyclobutane-1-carbonitrile], the fold induction at 0.3 µM is not above 1.24 in assay [1] (setting [4]) and not above 15 in assay [2] (setting [4]). For the same compound, the fold induction at 1 µM in assay [1] (setting [5]) was not above 1.24; in assay [1] (setting [6]), not above 1; in assay [2] (setting [7]) it was not above 15; in assay [2] (setting [8]), less than 0.4. The fold induction at 3 µM in assay [1] (anti-CD3 stimulation alone) was 1 to 1.15; in assay [2] (anti-CD3 stimulation alone) it was less than 0.4. Besides, the IC50 in assay [3] (setting [9]) and in assay [3] (setting [10]) was 1 to 2 nM throughout.
